Laboratory results published in US6528295B2, “Protein phosphatase methylesterase” (priority 1998, dated 2003).
“Also recorded” adds a separate entry of the source. *1 amine or outer side, *2 acyl side, *3 side chain or, on linkers, in order; H or OH if unused. Where a SMILES comes first, the peptide text is derived from it. Bridges are numbered along the chain shown (N, C = ends). [ ]: non-standard residue; d: D form. Adda = CO[C@@H](Cc1ccccc1)[C@@H](C)/C=C(C)/C=C/[C@H](N[*:1])[C@H](C)C(=O)[*:2]; dAsp(3S-Me) = C[C@H](C(=O)[*:3])[C@@H](N[*:1])C(=O)[*:2]; d(γGlu) = O=C(O)[C@@H](CCC(=O)[*:2])N[*:1]; NMeDha = C=C(NC)C(=O)O

Experiments:
human PME-1 [1] = molecular target: human PME-1 (Homo sapiens, UniProt Q9Y570); assay type: biochemical
Chain of human PME-1 (Homo sapiens, UniProt Q9Y570) (Q9Y570 2-386): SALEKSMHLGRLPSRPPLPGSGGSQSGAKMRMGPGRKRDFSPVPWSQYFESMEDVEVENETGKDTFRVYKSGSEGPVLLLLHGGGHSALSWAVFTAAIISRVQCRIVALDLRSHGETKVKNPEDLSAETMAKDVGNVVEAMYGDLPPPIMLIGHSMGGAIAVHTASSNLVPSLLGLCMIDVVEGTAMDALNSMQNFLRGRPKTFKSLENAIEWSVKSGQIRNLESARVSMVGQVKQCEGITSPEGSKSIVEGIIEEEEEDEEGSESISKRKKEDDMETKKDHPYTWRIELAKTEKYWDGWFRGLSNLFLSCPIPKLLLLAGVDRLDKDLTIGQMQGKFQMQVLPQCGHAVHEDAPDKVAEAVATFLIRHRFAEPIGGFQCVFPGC

PP2A methyltransferase = conditions: cited from earlier work
PP2A = PP2A (Homo sapiens, UniProt P67775); assay type: biochemical
Chain of PP2A (P67775 whole entry): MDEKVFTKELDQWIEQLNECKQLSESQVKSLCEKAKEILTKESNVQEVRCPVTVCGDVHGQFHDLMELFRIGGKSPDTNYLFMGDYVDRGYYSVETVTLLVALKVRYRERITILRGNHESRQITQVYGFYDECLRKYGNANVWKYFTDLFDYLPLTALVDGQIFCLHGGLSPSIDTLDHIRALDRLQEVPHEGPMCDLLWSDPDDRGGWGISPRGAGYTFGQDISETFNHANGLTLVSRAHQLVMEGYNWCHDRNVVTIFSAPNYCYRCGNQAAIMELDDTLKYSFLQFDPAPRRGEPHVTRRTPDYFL

human PME-1 [2] = assay type: biochemical
H59Q/PME-1 complex = molecular target: T1, H59Q/PME-1 complex (Homo sapiens, UniProt P67775, H59Q); assay type: binding, mouse
T1 construct: expressed in transfected cells; host or cells: NIH3T3 (A3); MT-transformed NIH3T3 (A8); PME-1 is endogenous
T1 sequence (P67775 whole entry H59Q): as the sequence (P67775 whole entry) above, with H59Q counted along it
T1 sequence (Q76MZ3 whole entry partner): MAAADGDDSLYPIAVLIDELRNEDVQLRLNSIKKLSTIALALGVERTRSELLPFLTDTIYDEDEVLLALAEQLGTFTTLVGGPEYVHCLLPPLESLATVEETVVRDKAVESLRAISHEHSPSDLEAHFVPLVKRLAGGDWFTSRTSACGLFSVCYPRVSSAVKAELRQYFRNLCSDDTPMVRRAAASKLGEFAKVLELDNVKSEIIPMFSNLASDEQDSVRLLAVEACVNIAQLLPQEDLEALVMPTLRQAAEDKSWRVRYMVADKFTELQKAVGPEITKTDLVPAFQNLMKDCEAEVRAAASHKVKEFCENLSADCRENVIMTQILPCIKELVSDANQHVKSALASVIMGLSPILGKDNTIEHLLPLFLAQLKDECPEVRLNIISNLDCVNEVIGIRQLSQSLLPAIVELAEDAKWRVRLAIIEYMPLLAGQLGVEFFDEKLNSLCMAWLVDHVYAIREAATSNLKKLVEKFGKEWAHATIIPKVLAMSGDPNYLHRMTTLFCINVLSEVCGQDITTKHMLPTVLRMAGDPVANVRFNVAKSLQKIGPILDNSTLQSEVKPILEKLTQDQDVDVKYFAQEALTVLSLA

[3] = test system: 46 kDa PP2A methylesterase; conditions: cited from earlier work
PME-1 = molecular target: T2, PME-1 (Mus musculus, UniProt Q8BVQ5); assay: Immunoprecipitation assay of PME-1 binding to H59Q/301Stop versus H59Q; conditions: all seven experiments
T2 construct: endogenous in cells; host or cells: MT-transformed NIH3T3 cells (C subunit mutants stably transfected)
T2 sequence (Q8BVQ5 1-386): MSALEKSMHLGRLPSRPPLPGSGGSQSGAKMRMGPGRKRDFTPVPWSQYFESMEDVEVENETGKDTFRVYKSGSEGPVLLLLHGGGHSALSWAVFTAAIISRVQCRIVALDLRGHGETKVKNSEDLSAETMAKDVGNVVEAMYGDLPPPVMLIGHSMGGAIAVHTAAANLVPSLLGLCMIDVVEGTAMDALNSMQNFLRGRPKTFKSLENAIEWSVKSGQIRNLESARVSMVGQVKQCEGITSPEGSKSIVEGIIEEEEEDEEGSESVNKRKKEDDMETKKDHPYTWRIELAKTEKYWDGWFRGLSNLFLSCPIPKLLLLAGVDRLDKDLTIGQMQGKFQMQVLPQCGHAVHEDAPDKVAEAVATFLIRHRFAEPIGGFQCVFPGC

[4] = test system: phosphorylase a and cdc2-phosphorylated histone H1; assay: Phosphatase activity in anti-HA tag immunoprecipitates of wt and mutant C subunits; assay type: biochemical; conditions: normalized to wt, four independent experiments

O=S(=O)(F)Cc1ccccc1 [PMSF, phenylmethylsulfonyl fluoride]
methylesterase activity of bacterially expressed PME-1 (human PME-1 [1]): not

C=C1C(=O)N[C@H](C)C(=O)N[C@@H](CC(C)C)C(=O)N[C@@H](C(=O)O)[C@H](C)C(=O)N[C@@H](CCCNC(=N)N)C(=O)N[C@@H](/C=C/C(C)=C/[C@H](C)[C@H](Cc2ccccc2)OC)[C@H](C)C(=O)N[C@@H](C(=O)O)CCC(=O)N1C [microcystin-LR] (R[Adda][d(γGlu)][NMeDha][dA]L[dAsp(3S-Me)]-OH; lactam N-7)
inhibition of the PP2A methyltransferase (PP2A methyltransferase): inhibited

C=C1[C@@H](O)[C@@H]2O[C@]3(CC[C@H](/C=C/[C@@H](C)[C@@H]4CC(C)=C[C@@]5(O[C@H](C[C@@](C)(O)C(=O)O)CC[C@H]5O)O4)O3)CC[C@H]2O[C@@H]1[C@@H](O)C[C@H](C)[C@H]1O[C@@]2(CCCCO2)CC[C@H]1C [okadaic acid]
inhibition of PP2A (PP2A): 97±4%
methylesterase activity of bacterially expressed PME-1 (human PME-1 [2]): inhibited
amount of PME-1 bound to (complexed with) H59Q C subunit (H59Q/PME-1 complex): reduce; also recorded: decreased
inhibition of the 46 kDa PP2A methylesterase [3]: inhibited
inhibition of the PP2A methyltransferase (PP2A methyltransferase): inhibited

[F-].[Na+] [sodium fluoride]
inhibition of PP2A (PP2A): 91±10%
amount of PME-1 bound to (complexed with) H59Q C subunit (H59Q/PME-1 complex): reduce; also recorded: decreased

H59Q/301Stop: double mutant combining H59Q with deletion of the nine C subunit carboxy-terminal amino acids 301-309
overall mean reduction of PME-1 bound relative to H59Q (PME-1): 28%

sodium vanadate
inhibition of PP2A (PP2A): 25±18%
amount of PME-1 bound to (complexed with) H59Q C subunit (H59Q/PME-1 complex): not

wt: HA-tagged wild-type PP2A C subunit
C subunit-associated phosphatase activity, cdc2-phosphorylated Histone H1 (Mean ± s.d.) ([4]; substrate cdc2-phosphorylated histone H1): 100 % wt
C subunit-associated phosphatase activity, phosphorylase a (Means ± s.d.) ([4]; substrate phosphorylase a): 100 % wt
